According to patent US4460765A, “Enzyme inhibitor produced by cultivation of streptomyces microorganisms” (Sankyo Company Limited, priority 1979, dated 1984):

How the values were obtained:
[1] = molecular target: low Km cAMP PDE, rat brain; assay: cAMP PDE inhibition, low Km enzyme from rat brain; format: biochemical; settings: cAMP concentration 0.14 μM; for IC50: read-out: 50% inhibitory value (I50)
Experimental: (§1) The inhibitory activity of the compounds of the invention (or of compositions, e.g. culture broths, containing them) may be assayed by the method of Pichard and Thun [Journal of Biological Chemistry, 251, 5726-5737 (1976)], using a crude enzyme solution derived from rat brains as the cAMP PDE. In this method, ^14 C-labelled cAMP is used as the substrate and is reacted at 30° C. for 20 minutes with 2-5 μl of the compound or composition under test, 20 μl of a snake venom and 40 μl of the crude enzyme solution in a 0.2M tris-HCl buffer (pH 8.0). The tris-HCl buffer is a mixture of tris(hydroxymethyl)aminomethane and hydrochloric acid. After completion of the reaction, the reaction mixture is treated with an Amberlite (Trade Mark) IRP-58 resin. From the residual radioactivity of the adenosine in the product, the inhibitory activity of the compound or composition against the cAMP PDE can be calculated as a percentage.
(§2) The inhibitory activity of griseolic acid against cAMP PDE in terms of its 50% inhibitory value (I50) are shown in Table 5 against cAMP PDE from a variety of sources having either a high or a low Michaelis constant (Km). The results are reported as μmoles (μM).

[2] = tested on: Hela S-3 strain cells; assay: basic tests on cytotoxicity; format: cell-based, mouse; settings: even at concentrations of 100 μg/ml
[3] = tested on: high Km cAMP PDE, rat aorta; assay: cAMP PDE inhibition, high Km enzyme from rat aorta; format: biochemical; settings: cAMP concentration 100 μM, read-out: 50% inhibitory value (I50)
Experimental: as §1, §2

[4] = molecular target: T1, low Km cAMP PDE, rat platelets (Rattus norvegicus, UniProt Q62865); assay: cAMP PDE inhibition, low Km enzyme from rat platelets; format: biochemical; settings: cAMP concentration 0.14 μM, read-out: 50% inhibitory value (I50)
T1 construct: from tissue; host or cells: rat platelets
T1 sequence (Q62865 1-1141): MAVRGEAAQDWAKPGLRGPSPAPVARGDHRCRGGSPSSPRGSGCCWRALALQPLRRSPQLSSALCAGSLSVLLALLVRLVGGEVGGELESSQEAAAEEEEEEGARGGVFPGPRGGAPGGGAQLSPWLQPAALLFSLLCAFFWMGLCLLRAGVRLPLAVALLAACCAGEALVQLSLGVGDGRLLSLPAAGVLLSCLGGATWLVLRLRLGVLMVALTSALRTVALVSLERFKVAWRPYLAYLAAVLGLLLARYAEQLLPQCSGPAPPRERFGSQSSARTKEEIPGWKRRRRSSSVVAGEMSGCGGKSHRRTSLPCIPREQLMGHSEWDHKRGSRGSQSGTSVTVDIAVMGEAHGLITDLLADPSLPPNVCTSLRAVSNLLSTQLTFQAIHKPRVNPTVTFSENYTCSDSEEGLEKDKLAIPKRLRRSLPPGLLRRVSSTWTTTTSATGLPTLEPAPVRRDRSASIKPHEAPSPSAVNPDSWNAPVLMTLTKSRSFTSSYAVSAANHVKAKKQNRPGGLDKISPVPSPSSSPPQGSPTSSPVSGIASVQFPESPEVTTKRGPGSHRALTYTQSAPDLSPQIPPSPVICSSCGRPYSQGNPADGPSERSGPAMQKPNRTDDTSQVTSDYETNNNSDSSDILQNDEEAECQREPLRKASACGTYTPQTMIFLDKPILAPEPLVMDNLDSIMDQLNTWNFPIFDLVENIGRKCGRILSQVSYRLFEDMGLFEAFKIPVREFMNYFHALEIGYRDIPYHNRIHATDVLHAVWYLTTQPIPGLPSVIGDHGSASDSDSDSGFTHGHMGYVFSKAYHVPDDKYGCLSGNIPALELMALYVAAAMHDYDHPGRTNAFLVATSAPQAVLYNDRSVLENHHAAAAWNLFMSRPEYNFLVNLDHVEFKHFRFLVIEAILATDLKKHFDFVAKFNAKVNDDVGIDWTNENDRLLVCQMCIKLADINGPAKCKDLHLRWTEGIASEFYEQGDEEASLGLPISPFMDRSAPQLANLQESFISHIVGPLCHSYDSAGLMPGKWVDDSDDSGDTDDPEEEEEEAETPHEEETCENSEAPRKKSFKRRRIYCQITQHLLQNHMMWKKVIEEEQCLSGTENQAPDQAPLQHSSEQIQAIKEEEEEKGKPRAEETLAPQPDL
Experimental: as §1, §2

[5] = tested on: low Km cAMP PDE, rat aorta; assay: cAMP PDE inhibition, low Km enzyme from rat aorta; format: biochemical; settings: cAMP concentration 0.14 μM, read-out: 50% inhibitory value (I50)
Experimental: as §1, §2

[6] = molecular target: low Km cAMP PDE, rat heart; assay: cAMP PDE inhibition, low Km enzyme from rat heart; format: biochemical; settings: cAMP concentration 0.14 μM, read-out: 50% inhibitory value (I50)
Experimental: as §1, §2

[7] = water solubility (qualitative); format: physicochemical
[8] = molecular target: low Km cAMP PDE, rat kidney; assay: cAMP PDE inhibition, low Km enzyme from rat kidney; format: biochemical; settings: cAMP concentration 0.14 μM, read-out: 50% inhibitory value (I50)
Experimental: as §1, §2

[9] = tested on: high Km cAMP PDE, rat platelets; assay: cAMP PDE inhibition, high Km enzyme from rat platelets; format: biochemical; settings: cAMP concentration 100 μM, read-out: 50% inhibitory value (I50)
Experimental: as §1, §2

[10] = molecular target: high Km cAMP PDE, rat kidney; assay: cAMP PDE inhibition, high Km enzyme from rat kidney; format: biochemical; settings: cAMP concentration 100 μM, read-out: 50% inhibitory value (I50)
Experimental: as §1, §2

[11] = molecular target: high Km cAMP PDE, rat brain; assay: cAMP PDE inhibition, high Km enzyme from rat brain; format: biochemical; settings: cAMP concentration 100 μM, read-out: 50% inhibitory value (I50)
Experimental: as §1, §2

[12] = molecular target: high Km cAMP PDE, rat heart; assay: cAMP PDE inhibition, high Km enzyme from rat heart; format: biochemical; settings: cAMP concentration 100 μM, read-out: 50% inhibitory value (I50)
Experimental: as §1, §2

| SMILES | IC50 [1] [nM] | inhibitory activity relative to papaverine (times stronger) [1] | inhibition of cell growth [2] | IC50 [3] [nM] | IC50 [4] [nM] | IC50 [5] [nM] | IC50 [6] [nM] | water solubility [7] | IC50 [8] [nM] | IC50 [9] [nM] | IC50 [10] [nM] | IC50 [11] [nM] | IC50 [12] [nM] |
| --- | --- | --- | --- | --- | --- | --- | --- | --- | --- | --- | --- | --- | --- |
| COc1ccc(Cc2nccc3cc(OC)c(OC)cc23)cc1OC [Papaverine, reference compound] | 3500 |  |  |  |  |  |  |  |  |  |  |  |  |
| Nc1ncnc2c1ncn2C1OC2=C(C(=O)O)C(C(O)C(=O)O)OC2C1O (centres unmarked) [griseolic acid] | 160 | about 20 times | no inhibition of cell growth | 510 | 41 | 31 | 36 | water-soluble | 120 | 8000 | 580 | 800 | 340 |
